Assay results: patent US4599325A, “Substituted tyrosyl alanine dipeptide amides” (G. D. Searle & Co., priority 1985, dated 1986)
Structures can show the parent of a compound that is named as a salt.

How the values were obtained:
[1] = tested on: mice; test: Writhing assay (phenylbenzoquinone); format: in vivo, mouse; details: for ED50: Mus musculus; for Writhing Mouse Oral (ED50) / Writhing Mouse Subc. (ED50): Table 1; for Writhing Mouse Subc. (ED50): subcutaneous
Experimental: Male Charles River albino mice (CD-1/HAM/1LR) weighing between 20 and 30 grams were used. Thirty minutes after subcutaneous or intragastric administration of the test compound (0.1 ml/10 gram body weight), 0.025% (w/v) phenylbenzoquinone was injected intraperitoneally (0.1 ml/10 gram body weight). Five minutes later, each mouse was placed in a large glass beaker and the number of writhes that occurred in the subsequent ten minutes is counted. A writhe consisted of dorsoflexion of the back, extension of the hindlimbs, and strong contraction of the abdominal musculature. The test compound was considered to have produced analgesia in a mouse if the number of writhes elicited by phenylbenzoquinone was equal to or less than one-half the median number of writhes recorded for the saline-treated group that day. The results were expressed as the number of mice (out of a possible ten) in which the test compound produced analgesia. The test compound was rated active if writhing was inhibited (as described) in 5 of 10 mice.
The receptor binding and biological properties of the following compounds of this invention are illustrated in Tables 1 and 2 utilizing the previously described opiate binding, hot plate, tail flick, writhing assay, cholera test or hypertensive test. The standard screening dose for the hot plate test of Table 1 was 10 mg/kg i.v. and for the writhing assay was 10 mg/kg s.c. and p.o.

[2] = target: T1, delta opiate receptor (Rattus norvegicus, UniProt P33533); test: Delta opiate receptor binding (3H-(D)-Ala2-(D)-Leu5 enkephalin); details: Table 2; 3H-(D)-Ala2-(D)-Leu5 enkephalin 0.2 nM, rat brain
T1 construct: The receptor membrane homogenate was prepared using rat brain; from tissue; host or cells: rat brain membrane homogenate
Experimental: Several subtypes of opiate receptors have been identified. These multiple receptors are thought to mediate the different effects of opiates, e.g., mu receptors are believed to mediate the analgesic activity of opiates. Therefore, the relative affinities of the test compounds for the mu and the delta opiate receptors was determined. The receptor membrane homogenate was prepared using rat brain as previously described in this document. The binding assays for the mu and delta receptors were performed using a modification of the method described by Chang and Cuatrecasas. K.-J. Chang and P. Cuatrecasas. Multiple Opiate receptors: enkephalins and morphine bind to receptors of different specificity, J. Biol. Chem. 254, 2610-2618 (1979). The incubation mixtures contained 0.75 ml of homogenate (1 mg protein/ml) and 0.05 ml of ^3 H-Dihydromorphine (final concentration of 0.2 nM) or 0.05 ml ^3 H-(D)-Ala^2 -(D)-Leu^5 enkephalin (final concentration of 0.2 nM). Both the displacer, naloxone, and the test compounds were added in 0.1 ml volumes. Finally, […] tris-HCl buffer (pH 7.4 at 25° C.) was added to bring the total volume up to 1 ml. The mixture were then incubated 60 minutes at 25° C. before filtering.
The IC50 values, i.e., the concentration of the test compound that inhibited ligand specific binding to its receptor by 50%, were calculated using log-probit analysis, D. J. Finney. […]

[3] = tested on: mice; test: Combined tail flick and hot plate tests: hot plate; format: in vivo, mouse; details: for ED50: Mus musculus, combined tail flick/hot plate; for activity in hot plate test of combined tests: oral and subcutaneous, prior art at doses as great as 100 mg/kg p.o. and 50 mg/kg s.c.
Experimental: (§1) Male albino inbred mice supplied by Charles River (CD-1/HAM/1LR) weighing between 20 and 30 grams were used. Analgesia was first measured using the tail flick test in which a high intensity beam of light was focused on the blackened tail. The interval of time between onset of the light and reflex removal of the tail was defined as the tail flick latency. The average of two successive determinations was recorded. Following tail flick determination, the animals were immediately placed on a 55° C. copper hot plate to which they were restricted by an inverted 600 ml glass beaker. Hot plate latency was defined as the interval between placement on the hot plate and a behavioral response of either a jump or a hindpaw lick. One determination was recorded. Mice not responding within 4.0 seconds on the tail flick and 20.0 seconds on the hot plate were discarded from the study. The tail flick test and the hot plate test were stopped after 12.0 and 40 seconds, respectively, had elapsed to prevent tissue damage. After determination of pre-injection baseline latencies, the test compound was dissolved in distilled water and administered either orally or subcutaneously (0.1 ml/10 gram body weight). Tail flick and hot plate latencies were measured 10, 30, 60 and 90 minutes after injection. One-way analyses of variance were used to detect any significant increase in tail flick and hot plate latencies (indicative of analgesia) as compared to latencies prior to drug adminstration, as well as to establish the dose-dependence of any effect. A linear regression method (least squares) was used to determine the line of best fit. The ED50 dose was determined to be that dose of test compound that produced one-half the maximum measurable increase in latency. This corresponded to a post-drug tail flick latency of 7.5 seconds and hot plate latency of 25 seconds. G. Keppel: Design and analysis: a researcher's handbook, New Jersey, Prentice-Hall, 1973.

[4] = tested on: mice; test: Combined tail flick and hot plate tests: tail flick; format: in vivo, mouse; details: for ED50: Mus musculus, combined tail flick/hot plate; for activity in tail flick test: oral and subcutaneous, prior art at doses as great as 100 mg/kg p.o. and 50 mg/kg s.c.
Experimental: as §1

[5] = tested on: rat cholera model; test: Cholera-induced intestinal fluid secretion (rat cholera model); format: in vivo
Experimental: The rat cholera model was used to determine the effect of the test compounds on intestinal fluid movements. (H. I. Jacoby and C. H. Marshall, Antagonism of Cholera Enterotoxin by Anti-inflammatory Agents in the Rat. Nature, 235, 163-165, 1972). Female Charles River rats weighing 85-100 grams and having free access to water were fasted for 24 hours prior to each experiment. After a midline incision was made under ether anesthesia, a 20-cm ligated small intestinal segment was constructed starting 3 cm distal to the ligament of Treitz. Each segment was injected, using a 27 gauge 1/2-inch needle, with crude cholera toxin in a 0.9% saline solution. Thirty minutes before cholera toxin was injected, test compounds were administered subcutaneously to groups of four rats at doses of 10 and 20 mg/kg. Four hours after injection of toxin, the animals were sacrificed and the fluid content and exact length of the intestinal segments were measured. Fluid secretion was expressed in ml/cm of intestine.
The ID50 's of these compounds were estimated using data obtained from at least two doses and at least two experiments by the method of maximum likelihood. R. A. Fischer. "Principles of Statistical Estimation." in Statistical Methods for Research Workers, 14th ed. Hafner: New York; pp. 301-339. […]

T1 sequence (P33533 whole entry): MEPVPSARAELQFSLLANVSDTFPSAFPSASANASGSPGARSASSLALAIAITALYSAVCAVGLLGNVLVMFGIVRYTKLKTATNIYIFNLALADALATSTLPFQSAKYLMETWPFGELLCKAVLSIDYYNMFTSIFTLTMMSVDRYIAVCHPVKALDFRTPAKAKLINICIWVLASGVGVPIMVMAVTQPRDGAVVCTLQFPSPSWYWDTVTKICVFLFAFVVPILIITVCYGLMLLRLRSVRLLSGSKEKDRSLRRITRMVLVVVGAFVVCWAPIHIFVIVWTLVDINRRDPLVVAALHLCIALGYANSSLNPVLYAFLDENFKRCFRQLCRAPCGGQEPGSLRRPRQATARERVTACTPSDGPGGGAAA

## Cc1cc(O)cc(C)c1C[C@H](N)C(=O)N[C@H](C)C(=O)NCCCc1ccccc1 [Example 5, 2,6-dimethyltyrosyl-N-(3-phenylpropyl)-D-alaninamide, hydrochloride]
[1]; po, Table 2, p.o., read-out: Writhing (ED50) p.o.
  ED50: 0.5 mg/kg
[1]; sc, Table 2, s.c., read-out: Writhing (ED50) s.c.
  ED50: 0.5 mg/kg
[1]; hydrochloride
  Writhing Mouse Oral (ED50): 0.53 mg/kg
  Writhing Mouse Subc. (ED50): 0.52 mg/kg
[1]; administered orally, more active than prior art
  activity in writhing test relative to the prior art, oral: 6 times
[1]; subcutaneous administration
  potency in writhing test relative to the prior art, subcutaneous: approximately equipotent
[2]
  IC50: 1.2 nM
[3]; po, p.o., read-out: Hot Plate (ED50) p.o.
  ED50: 52 mg/kg
[3]; sc, s.c., read-out: Hot Plate (ED50) s.c.
  ED50: 9 mg/kg
[3]
  activity in hot plate test of combined tests: active
[4]; po, p.o., read-out: Tail Flick (ED50) p.o.
  ED50: 115 mg/kg
[4]; sc, s.c., read-out: Tail Flick (ED50) s.c.
  ED50: 35 mg/kg
[4]
  activity in tail flick test: active
[5]; Rattus norvegicus, sc, read-out: Rat Cholera Test (ED50)
  ED50: 6.1 mg/kg

## tyrosine-D-alanine-phenylpropylamide [Prior Art, reference compound]
[1]
  Writhing Mouse Oral (ED50): 0.58 mg/kg
  Writhing Mouse Subc. (ED50): 3.10 mg/kg
[1]; Table 2, s.c.
  Writhing (ED50) s.c.: 0.6 mg/kg
[2]
  IC50: 62 nM
[3]; 50 mg/kg s.c.
  Hot Plate, activity at stated dose s.c.: Inactive
[3]; 100 mg/kg p.o.
  Hot Plate, activity at stated dose p.o.: Inactive
[3]
  activity in hot plate test of combined tests: not active
[4]; 50 mg/kg s.c.
  Tail Flick, activity at stated dose s.c.: Inactive
[4]; 100 mg/kg p.o.
  Tail Flick, activity at stated dose p.o.: Inactive
[4]
  activity in tail flick test: not active
[5]; 20 mg/kg s.c.
  Rat Cholera Test, activity at stated dose: Inactive
